In patent US7074801B1, “Nitrogen-containing condensed cyclic compound having a pyrazolyl group as a substituent group and pharmaceutical composition thereof” (Eisai Co., Ltd., priority 2001, dated 2006):
Structures can show the parent of a compound that is named as a salt.

System: STAT6
Test: Inhibitory test on STAT6 activation: IL-4-induced alkali phosphatase STAT6 reporter in 293 cells stably expressing the STAT6 gene and STAT6 reporter gene
Assay type: cell-based
Details: HEK293; Table 1; 1 ng/ml human recombinant IL-4, 16 hours, 293 cells with STAT6 reporter; read-out: Inhibitory activity IC50 (concentration at which the alkali phosphatase activity induced by IL-4 was inhibited by 50%)
Experimental: The inhibitory action of the present compound on activation of STAT6 was evaluated according to the following experiments.
1) Construction of a STAT6 Reporter Gene
An oligonucleotide of SEQ ID NO:1 in which three STAT6-binding regions on a human immunoglobulin germline E gene promoter had been linked was mixed with its complementary chain, thermally denatured and annealed, and 5′- and 3′-ends thereof were cleaved with restriction enzymes Kpn I (Code No. 1068A, Takara Shuzo) and Xba I (Code No. 1093A, Takara Shuzo) respectively, and the resulting fragment was cloned into a Kpn I/Xba I site of pUG-BGH-PLAP vector (described in Molecular Pharmacology, 49:860–873, 1996). To induce a basic transcriptional factor, a TK promoter region of herpes virus was cloned into an Xba I/Hind III (Code No. 1060A, Takara Shuzo) site of the pUG-BGH-PLAP vector. To obtain a stably expressing cell strain, a neomycin resistance gene (PGK-neo expression cassette) was integrated with an Sal I (Code No. 1080A, Takara Shuzo) of this vector. Cloning of the TK promoter and PGK-neo expression cassette was carried out according to Molecular Pharmacology, 49:860–873, 1996.
The underlined sites are a Kpn I recognition site and Xba I recognition site respectively. 2) Construction of an STAT6 Expression Vector
An oligonucleotide of SEQ ID NO:2 containing an initiation codon of STAT6 gene and an oligonucleotide of SEQ ID NO:3 containing a stop codon were used, and total RNA was prepared from human peripheral blood cells by using RNeasy Mini kit (Code No. 74104, OIAGEN). Then, cDNA was prepared by reverse transcription reaction using Takara RNA LA PCR kit (Code No. RR012A, Takara Shuzo) and then subjected to PCR reaction with primers of SEQ ID NOS:2 and 3, to amplify the STAT6 gene. • (SEQ ID NO:2) 5′-[…]-3′ The underlined site is an EcoR I recognition site. • (SEQ ID NO:3) 5′-[…]-3′ The underlined site is an Xho I recognition site.
The PCR product was digested with EcoR I (Code No. 1040A, Takara Shuzo) and Xho I (1094A, Takara Shuzo), and the digested fragment was isolated on an agarose gel. The isolated fragment was integrated into a vector fragment obtained by digesting pcDNA3.1 (+) (Code No. U790-20, Invitrogen) vector with EcoRI/Xho I.
3) Introduction of the Gene and Preparation of a Stably Expressing Cell Strain
Human fetal kidney-derived 293 cells (American Type Culture Collection), 3.0×10^5 cells, were spread on a Falcon tissue culture 6-well plate (Code No. 35-3046, Becton Dickinson) and cultured overnight. 1.5 μg of the prepared STAT6 reporter gene, 1.5 μg of the STAT6 gene and 20 μl of lipofectamine (Code No. 18324-012, GIBCO BRL) were mixed in 0.3 ml OPTI-MEM medium (Code No. 31985-070) and left at room temperature for 20 minutes. Thereafter, 1.2 ml OPTI-MEM medium was further added to the cells washed with OPTI-MEM medium not containing fetal bovine serum, and the cells were cultured for 2 hours. 1.5 ml medium containing fetal bovine serum was added thereto, and the cells were cultured for additional 19 hours. The medium was exchanged with a fresh one, and Geneticin (Code No. G-5013, SIGMA) was added at a concentration of 1 mg/ml, and the cells were cultured, and chemical-resistant cells were selected. The resulting chemical-resistant cells were floated in a medium containing 1 mg/ml Geneticin, then spread at a density of 0.5 cell/well on a 96-well microplate (Code No. 35-3072, Becton Dickinson) and cloned to give a clone expressing alkali phosphatase in response to IL-4.
4) Inhibitory Test on STAT6 Activation
The cells stably expressing the STAT6 gene and STAT6 reporter gene and expressing alkali phosphatase in response to IL-4 were spread at a density of 5000 cells/180 μl/well on a 96-well microplate (Code No. 35-3072, Becton Dickinson) and cultured overnight. […]

Compound	IC50
CSc1nnc(-c2cnc3ccc(-c4c[nH]nc4-c4ccc(F)cc4)cn23)o1 [Example 555, 6-[3-(4-Fluorophenyl)-1H-pyrazol-4-yl]-3-(5-methylsulfanyl[1,3,4]oxadiazol-2-yl)imidazo[1,2-a]pyridine]	< 10 nM
Fc1ccc(-c2n[nH]cc2-c2ccc3ncc(-c4nnc(C5CC5)s4)n3c2)c(F)c1 [Example 556, 3-(5-Cyclopropyl[1,3,4]thiadiazol-2-yl)6-[3-(2,4-difluorophenyl)-1H-pyrazol-4-yl]imidazo[1,2-a]pyridine]	< 10 nM
Fc1ccc(-c2n[nH]cc2-c2ccc3ncc(-c4nnc(C5CC5)o4)n3c2)c(F)c1 [Example 557, 3-(5-Cyclopropyl[1,3,4]oxadiazol-2-yl)6-[3-(2,4-difluorophenyl)-1H-pyrazol-4-yl]imidazo[1,2-a]pyridine]	< 10 nM
CNc1nnc(-c2cnc3ccc(-c4c[nH]nc4-c4ccc(F)cc4F)cn23)o1 [Example 561]	< 10 nM
COc1nnc(-c2cnc3ccc(-c4c[nH]nc4-c4ccc(F)cc4F)cn23)s1 [Example 562, 6-[3-(2,4-Fluorophenyl)-1H-pyrazol-4-yl]-3-(5-methoxy[1,3,4]thiadiazol-2-yl)imidazo[1,2-a]pyridine]	< 10 nM
Fc1ccc(-c2n[nH]cc2-c2ccc3ncc(-c4noc(C5CC5)n4)n3c2)c(F)c1 [Example 576, 3-(5-Cyclopropyl-[1,2,4]oxadiazol-3-yl)-6-[3-(2,4-difluorophenyl)-1H-4-pyrazolyl]-imidazo[1,2-a]pyridine trihydrochloride]	< 10 nM
COc1ccc(-c2n[nH]cc2-c2ccc3ncc(-c4noc(C5CC5)n4)n3c2)c(F)c1 [Example 580, 3-(5-Cyclopropyl-[1,2,4]oxadiazol-3-yl)-6-[3-(2-fluoro-4-methoxyphenyl)-1H-4-pyrazolyl]-imidazo[1,2-a]pyridine trihydrochloride]	< 10 nM
Fc1ccccc1-c1n[nH]cc1-c1ccc2ncc(-c3noc(C4CC4)n3)n2c1 [Example 583, 3-(5-Cyclopropyl-[1,2,4]oxadiazol-3-yl)-6-[3-(2-fluorophenyl)-1H-4-pyrazolyl]-imidazo[1,2-a]pyridine trihydrochloride]	< 10 nM
Fc1cc(OC2CCCC2)ccc1-c1n[nH]cc1-c1ccc2ncc(-c3noc(C4CC4)n3)n2c1 [Example 584, 6-[3-(4-Cyclopentyloxy-2-fluorophenyl)-1H-4-pyrazolyl]-3-(5-cyclopropyl-[1,2,4]oxadiazol-3-yl)-imidazo[1,2-a]-pyridine trihydrochloride]	< 10 nM
Fc1ccc(-c2n[nH]cc2-c2ccc3ncc(-c4noc(C(F)F)n4)n3c2)c(F)c1 [Example 589, 6-[3-(2,4-Difluorophenyl)-1H-4-pyrazolyl]-3-(5-difluoromethyl-[1,2,4]oxadiazol-3-yl)-imidazo[1,2-a]-pyridine trihydrochloride]	< 10 nM
CC(C)=Cc1nc(-c2cnc3ccc(-c4c[nH]nc4-c4ccccc4F)cn23)no1 [Example 592]	< 10 nM
O=C1CCCN1Cc1nc(-c2cnc3ccc(-c4c[nH]nc4-c4ccccc4F)cn23)no1 [Example 596, 1-(3-{6-[3-(2-Fluorophenyl)-1H-4-pyrazolyl]-imidazo[1,2-a]-pyridin-3-yl}-[1,2,4]oxadiazol-5-ylmethyl)-pyrrolidin-2-one di-trifluoroacetate]	< 10 nM
CN(C)Cc1nc(-c2cnc3ccc(-c4c[nH]nc4-c4ccccc4F)cn23)no1 [Example 598, (3-{6-[3-(2-Fluorophenyl)-1H-4-pyrazolyl]-imidazo[1,2-a]-pyridin-3-yl}-[1,2,4]oxadiazol-5-ylmethyl)dimethylamine tri-trifluoroacetate]	< 10 nM
Fc1cccc(F)c1-c1n[nH]cc1-c1ccc2ncc(-c3noc(CCC(F)(F)F)n3)n2c1 [Example 601, 3-[5-(3,3,3-Trifluoropropyl)-[1,2,4]oxadiazol-3-yl]-6-[3-(2,6-difluorophenyl)-1H-4-pyrazolyl]-imidazo[1,2-a]pyridine]	< 10 nM
CC(C)c1nc(-c2cnc3ccc(-c4c[nH]nc4-c4ccccc4F)cn23)no1 [Example 605, 6-[3-(2-Fluorophenyl)-1H-4-pyrazolyl]-3-(5-isopropyl-[1,2,4]oxadiazol-3-yl)-imidazo[1,2-a]pyridine trihydrochloride]	< 10 nM
COc1ccc(-c2cnc3ccc(-c4c[nH]nc4-c4ccc(F)cc4)cn23)cc1F [Example 622, 3-(3-Fluoro-4-methoxyphenyl)-6-[3-(4-fluorophenyl)-1H-4-pyrazolyl]imidazo[1,2-a]pyridine hydrochloride]	< 10 nM
O=C1CCc2cc(-c3cnc4ccc(-c5c[nH]nc5-c5ccc(F)cc5)cn34)ccc21 [Example 623, 5-{6-[3-(4-Fluorophenyl)-1H-4-pyrazolyl]imidazo[1,2-a]pyridin-3-yl}-1-indanone]	< 10 nM
N#CCCCS(=O)(=O)c1ccc(-c2cnc3ccc(-c4c[nH]nc4-c4ccc(F)cc4)cn23)s1 [Example 626, 4-[(5-{6-[3-(4-Fluorophenyl)-1H-4-pyrazolyl]imidazo[1,2-a]pyridin-3-yl}-2-thienyl)sulfonyl]butane nitrile hydrochloride]	< 10 nM
N#CCC[C@H](O)c1nc2ccc(-c3cnc4ccc(-c5c[nH]nc5-c5ccc(F)cc5)cn34)cc2s1 [Example 628, (4S)-4-(6-{6-[3-(4-Fluorophenyl)-1H-4-pyrazolyl]imidazo-[1,2-a]pyridin-3-yl)-1,3-benzothiazol-2-yl)-4-hydroxybutane nitrile dihydrochloride]	< 10 nM
Cc1csc(NC(=O)c2ccc(-c3cnc4ccc(-c5cn[nH]c5)cn34)cc2)n1 [Example 629, N1-(4-Methyl-1,3-thiazol-2-yl)-4-[6-(1H-4-pyrazolyl)-imidazo[1,2-a]pyridin-3-yl]benzamide dihydrochloride]	< 10 nM
Cc1n[nH]cc1-c1ccc2ncc(-c3ccc(S(=O)(=O)N(C)c4ccc(Cl)cc4)cc3)n2c1 [Example 632, N1-(4-Chlorophenyl)-N1-methyl-4-[6-(3-methyl-1H-4-pyrazolyl)imidazo[1,2-a]pyridin-3-yl]-1-benzene sulfonamide]	10 to 100 nM
Cc1n[nH]cc1-c1ccc2ncc(-c3ccc(C(=O)NN4CCCCC4)c(F)c3)n2c1 [Example 644, N1-Piperidino-2-fluoro-4-[6-(3-methyl-1H-4-pyrazolyl)-imidazo[1,2-a]pyridin-3-yl] benzamide dihydrochloride]	< 10 nM
Cc1n[nH]cc1-c1ccc2ncc(-c3ccc(C(=O)NCCc4ccccn4)c(F)c3)n2c1 [Example 648, N1-[2-(2-Pyridyl)ethyl]-2-fluoro-4-[6-(3-methyl-1H-4-pyrazolyl)imidazo[1,2-a]pyridin-3-yl] benzamide]	10 to 100 nM
O=C(Nc1nc(C2CC2)cs1)c1ccc(-c2cnc3ccc(-c4cn[nH]c4)cn23)cc1F [Example 652, N1-(4-Cyclopropyl-1,3-thiazol-2-yl)-2-fluoro-4-[6-(1H-4-pyrazolyl)imidazo[1,2-a]pyridin-3-yl]benzamide dihydrochloride]	< 10 nM
Cc1cnc(NC(=O)c2ccc(-c3cnc4ccc(-c5cn[nH]c5)cn34)nc2)s1 [Example 655, N3-(5-Methyl-1,3-thiazol-2-yl)-6-[6-(1H-4-pyrazolyl)-imidazo[1,2-a]pyridin-3-yl]nicotinic acid amide trihydrochloride]	10 to 100 nM
